According to PubChem BioAssay AID2060506 (Molecular Pharmacology Branch, DTP, NCI, 2025):

Test system: 598228-144-R-J1-PDC complex spheroid viability
Assay: Anticancer human tumor 598228-144-R-J1-PDC patient-derived serous endometrial adenocarcinoma cell line growth inhibition [GQUAD]
Details: for IC50: curve of first compound; for viability, T/C: stronger effect = lower value
How it was run: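 Multi-cell-type spheroids of tumor cells with HUVEC and mesenchymal stem cells, treated with drug combinations. Concentrations descend in half-log steps from near clinical Cmax, or from 10 microM where Cmax is unknown; viability read-out.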

[1] = second compound 0.0316 µM, first compound 0.0316 µM
[2] = second compound 0.0316 µM, first compound 0.1 µM
[3] = second compound 0.0316 µM, first compound 0.316 µM
[4] = second compound 0.0316 µM, first compound 1 µM
[5] = second compound 0.0316 µM, first compound 3.16 µM
[6] = second compound 0.0316 µM, first compound 10 µM
[7] = second compound 0.1 µM, first compound 0.0316 µM
[8] = second compound 0.1 µM, first compound 0.1 µM
[9] = second compound 0.1 µM, first compound 0.316 µM
[10] = second compound 0.1 µM, first compound 1 µM
[11] = second compound 0.1 µM, first compound 3.16 µM
[12] = second compound 0.1 µM, first compound 10 µM
[13] = second compound 0.316 µM, first compound 0.0316 µM
[14] = second compound 0.316 µM, first compound 0.1 µM
[15] = second compound 0.316 µM, first compound 0.316 µM
[16] = second compound 0.316 µM, first compound 1 µM
[17] = second compound 0.316 µM, first compound 3.16 µM
[18] = second compound 0.316 µM, first compound 10 µM
[19] = second compound 1 µM, first compound 0.0316 µM
[20] = second compound 1 µM, first compound 0.1 µM
[21] = second compound 1 µM, first compound 0.316 µM
[22] = second compound 1 µM, first compound 1 µM
[23] = second compound 1 µM, first compound 3.16 µM
[24] = second compound 1 µM, first compound 10 µM
[25] = second compound 3.16 µM, first compound 0.0316 µM
[26] = second compound 3.16 µM, first compound 0.1 µM
[27] = second compound 3.16 µM, first compound 0.316 µM
[28] = second compound 3.16 µM, first compound 1 µM
[29] = second compound 3.16 µM, first compound 3.16 µM
[30] = second compound 3.16 µM, first compound 10 µM
[31] = second compound 10 µM, first compound 0.0316 µM
[32] = second compound 10 µM, first compound 0.1 µM
[33] = second compound 10 µM, first compound 0.316 µM
[34] = second compound 10 µM, first compound 1 µM
[35] = second compound 10 µM, first compound 3.16 µM
[36] = second compound 10 µM, first compound 10 µM
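Also: spheroids exposed to the agents for one week before reading.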
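For viability, T/C in this document: percent of vehicle DMSO control viability so 100% = untreated growth.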

## CC1COCCN1c1cc(-c2ccnn2C)c2ccnc(-c3ccn[nH]3)c2n1 (stereo not drawn) + CN(C)c1ccc(Nc2c3ccc(NC(=O)CCN4CCCC4)cc3nc3cc(NC(=O)CCN4CCCC4)ccc23)cc1
Second compound 0.0316 µM
  IC50: 87.9 nM
Second compound 0.1 µM
  IC50: 88.2 nM
Second compound 0.316 µM
  IC50: 93.5 nM
Second compound 1 µM
  IC50: 721 nM
Second compound 3.16 µM
  IC50: 114 nM
Second compound 10 µM
  IC50: 58.1 nM
[1]
  viability, T/C: 86%
[2]
  viability, T/C: 45.6%
[3]
  viability, T/C: 40.3%
[4]
  viability, T/C: 43.3%
[5]
  viability, T/C: 49.2%
[6]
  viability, T/C: 45.2%
[7]
  viability, T/C: 79.7%
[8]
  viability, T/C: 46.1%
[9]
  viability, T/C: 45.5%
[10]
  viability, T/C: 40.5%
[11]
  viability, T/C: 42.4%
[12]
  viability, T/C: 43.5%
[13]
  viability, T/C: 76.3%
[14]
  viability, T/C: 51.3%
[15]
  viability, T/C: 32.7%
[16]
  viability, T/C: 43.9%
[17]
  viability, T/C: 45.5%
[18]
  viability, T/C: 34.6%
[19]
  viability, T/C: 70.6%
[20]
  viability, T/C: 63.8%
[21]
  viability, T/C: 50.5%
[22]
  viability, T/C: 50%
[23]
  viability, T/C: 45.7%
[24]
  viability, T/C: 38.9%
[25]
  viability, T/C: 74.6%
[26]
  viability, T/C: 49.6%
[27]
  viability, T/C: 40%
[28]
  viability, T/C: 40.6%
[29]
  viability, T/C: 43.4%
[30]
  viability, T/C: 25.9%
[31]
  viability, T/C: 73.5%
[32]
  viability, T/C: 29.5%
[33]
  viability, T/C: 20.5%
[34]
  viability, T/C: 29.7%
[35]
  viability, T/C: 27.6%
[36]
  viability, T/C: 14.9%

## CC1COCCN1c1cc(C2(O)CC3CCC(C2)O3)c2cnn(-c3ccn[nH]3)c2n1 (stereo not drawn) + CN(C)c1ccc(Nc2c3ccc(NC(=O)CCN4CCCC4)cc3nc3cc(NC(=O)CCN4CCCC4)ccc23)cc1
Second compound 0.0316 µM
  IC50: 72.8 nM
Second compound 0.1 µM
  IC50: 90 nM
Second compound 0.316 µM
  IC50: 130 nM
Second compound 1 µM
  IC50: 162 nM
Second compound 3.16 µM
  IC50: 146 nM
Second compound 10 µM
  IC50: 46 nM
[1]
  viability, T/C: 58.7%
[2]
  viability, T/C: 45.8%
[3]
  viability, T/C: 34.9%
[4]
  viability, T/C: 32.9%
[5]
  viability, T/C: 25.2%
[6]
  viability, T/C: 13.9%
[7]
  viability, T/C: 60.5%
[8]
  viability, T/C: 49.3%
[9]
  viability, T/C: 34.3%
[10]
  viability, T/C: 32.7%
[11]
  viability, T/C: 28.2%
[12]
  viability, T/C: 12.7%
[13]
  viability, T/C: 74.8%
[14]
  viability, T/C: 49%
[15]
  viability, T/C: 36.5%
[16]
  viability, T/C: 37.1%
[17]
  viability, T/C: 28.6%
[18]
  viability, T/C: 15.4%
[19]
  viability, T/C: 68.5%
[20]
  viability, T/C: 44.6%
[21]
  viability, T/C: 44.3%
[22]
  viability, T/C: 35.6%
[23]
  viability, T/C: 36.1%
[24]
  viability, T/C: 12.4%
[25]
  viability, T/C: 61.8%
[26]
  viability, T/C: 55.9%
[27]
  viability, T/C: 35.1%
[28]
  viability, T/C: 39.6%
[29]
  viability, T/C: 25.6%
[30]
  viability, T/C: 9.44%
[31]
  viability, T/C: 58.5%
[32]
  viability, T/C: 34.5%
[33]
  viability, T/C: 27.6%
[34]
  viability, T/C: 23.7%
[35]
  viability, T/C: 26.6%
[36]
  viability, T/C: 3.21%

## CC1COCCN1c1cc(C2(S(C)(=N)=O)CC2)nc(-c2ccnc3[nH]ccc23)n1 (stereo not drawn) + CN(C)c1ccc(Nc2c3ccc(NC(=O)CCN4CCCC4)cc3nc3cc(NC(=O)CCN4CCCC4)ccc23)cc1
Second compound 0.0316 µM
  IC50: 2870 nM
Second compound 0.1 µM
  IC50: 8670 nM
Second compound 0.316 µM
  IC50: > 10000 nM
Second compound 1 µM
  IC50: > 10000 nM
Second compound 3.16 µM
  IC50: > 10000 nM
Second compound 10 µM
  IC50: 1730 nM
[1]
  viability, T/C: 91.7%
[2]
  viability, T/C: 117%
[3]
  viability, T/C: 102%
[4]
  viability, T/C: 81.5%
[5]
  viability, T/C: 46.5%
[6]
  viability, T/C: 47%
[7]
  viability, T/C: 97.7%
[8]
  viability, T/C: 122%
[9]
  viability, T/C: 98.7%
[10]
  viability, T/C: 98.3%
[11]
  viability, T/C: 62.7%
[12]
  viability, T/C: 48.3%
[13]
  viability, T/C: 97.1%
[14]
  viability, T/C: 136%
[15]
  viability, T/C: 85%
[16]
  viability, T/C: 61.8%
[17]
  viability, T/C: 61.6%
[18]
  viability, T/C: 45.9%
[19]
  viability, T/C: 125%
[20]
  viability, T/C: 96.6%
[21]
  viability, T/C: 103%
[22]
  viability, T/C: 70.8%
[23]
  viability, T/C: 69.2%
[24]
  viability, T/C: 60.1%
[25]
  viability, T/C: 125%
[26]
  viability, T/C: 89.2%
[27]
  viability, T/C: 99.4%
[28]
  viability, T/C: 69.4%
[29]
  viability, T/C: 61.7%
[30]
  viability, T/C: 57.7%
[31]
  viability, T/C: 95.8%
[32]
  viability, T/C: 88.5%
[33]
  viability, T/C: 89.9%
[34]
  viability, T/C: 64.7%
[35]
  viability, T/C: 33.9%
[36]
  viability, T/C: 26.6%

## COc1ccc([C@@H](O)c2cc(-c3ncnc4cc(N5CCOCC5)ccc34)c(F)cc2Cl)nn1 + CN(C)c1ccc(Nc2c3ccc(NC(=O)CCN4CCCC4)cc3nc3cc(NC(=O)CCN4CCCC4)ccc23)cc1
Second compound 0.0316 µM
  IC50: 2600 nM
Second compound 0.1 µM
  IC50: 3830 nM
Second compound 0.316 µM
  IC50: 2300 nM
Second compound 1 µM
  IC50: 2300 nM
Second compound 3.16 µM
  IC50: 2460 nM
Second compound 10 µM
  IC50: 790 nM
[1]
  viability, T/C: 96.4%
[2]
  viability, T/C: 77.6%
[3]
  viability, T/C: 73.4%
[4]
  viability, T/C: 68.2%
[5]
  viability, T/C: 44%
[6]
  viability, T/C: 32.5%
[7]
  viability, T/C: 121%
[8]
  viability, T/C: 94.4%
[9]
  viability, T/C: 90.5%
[10]
  viability, T/C: 68.4%
[11]
  viability, T/C: 52.2%
[12]
  viability, T/C: 36.4%
[13]
  viability, T/C: 89.8%
[14]
  viability, T/C: 91.1%
[15]
  viability, T/C: 79.3%
[16]
  viability, T/C: 64.4%
[17]
  viability, T/C: 44.9%
[18]
  viability, T/C: 29.5%
[19]
  viability, T/C: 110%
[20]
  viability, T/C: 91.6%
[21]
  viability, T/C: 76.3%
[22]
  viability, T/C: 53.3%
[23]
  viability, T/C: 52%
[24]
  viability, T/C: 33.7%
[25]
  viability, T/C: 117%
[26]
  viability, T/C: 108%
[27]
  viability, T/C: 103%
[28]
  viability, T/C: 58.8%
[29]
  viability, T/C: 53.6%
[30]
  viability, T/C: 26.2%
[31]
  viability, T/C: 106%
[32]
  viability, T/C: 73.6%
[33]
  viability, T/C: 76.3%
[34]
  viability, T/C: 43.3%
[35]
  viability, T/C: 26.4%
[36]
  viability, T/C: 20.1%
